Test results published in patent US20090270407A1, “FUNGICIDAL ISOXAZOLIDINES” (E. I. DU PONT DE NEMOURS AND COMPANY, priority 2008, published 2009).
Like-named read-outs stand apart in the source and are kept apart here. Marks after values point to notes of the source that are not given here.

Columns and labels:
Alternaria solani = experiment: Test F: tomato early blight, preventive spray on tomato seedlings, visual disease rating; settings: 100 = 100 % disease control, 0 = no disease control relative to controls
Text: (§1) General protocol for preparing test suspensions for Tests A-I: The test compounds were first dissolved in acetone in an amount equal to 3% of the final volume and then suspended at the desired concentration (in ppm) in acetone and purified water (50/50 mix) containing 250 ppm of the surfactant Trem® 014 (polyhydric alcohol esters). The resulting test suspensions were then used in Tests A-I. Spraying a 200 ppm test suspension to the point of run-off on the test plants was the equivalent of a rate of 500 g/ha. (An asterisk “*” next to the rating value indicates a 40 ppm test suspension.)
The test suspension was sprayed to the point of run-off on tomato seedlings. The following day the seedlings were inoculated with a spore suspension of Alternaria solani (the causal agent of tomato early blight) and incubated in a saturated atmosphere at 27° C. for 48 h, and then moved to a growth chamber at 20° C. for 5 days, after which time visual disease ratings were made.
(§2) A dash (−) indicates no test results. All results are for 200 ppm except where followed by “*” which indicates 40 ppm.

Septoria nodorum = experiment: Test C: wheat glume blotch, preventive spray on wheat seedlings, visual disease rating; settings: 100 = 100 % disease control, 0 = no disease control relative to controls
Experimental: (An asterisk “*” next to the rating value indicates a 40 ppm test suspension.)
The test suspension was sprayed to the point of run-off on wheat seedlings. The following day the seedlings were inoculated with a spore suspension of Septoria nodorum (the causal agent of wheat glume blotch) and incubated in a saturated atmosphere at 20° C. for 48 h, and then moved to a growth chamber at 20° C. for 7 days, after which time visual disease ratings were made.
as §2

[1] = system: Puccinia recondita f. sp. tritici; experiment: Test B: wheat leaf rust, preventive spray on wheat seedlings, visual disease rating; settings: 100 = 100 % disease control, 0 = no disease control relative to controls
Text: General protocol for preparing test suspensions for Tests A-I: The test compounds were first dissolved in acetone in an amount equal to 3% of the final volume and then suspended at the desired concentration (in ppm) in acetone and purified water (50/50 mix) containing 250 ppm of the surfactant Trem® 014 (polyhydric alcohol esters). The resulting test suspensions were then used in Tests A-I. Spraying a 200 ppm test suspension to the point of run-off on the test plants was the equivalent of a rate of 500 g/ha.
The test suspension was sprayed to the point of run-off on wheat seedlings. The following day the seedlings were inoculated with a spore suspension of Puccinia recondita f. sp. tritici (the causal agent of wheat leaf rust) and incubated in a saturated atmosphere at 20° C. for 24 h, and then moved to a growth chamber at 20° C. for 7 days, after which time visual disease ratings were made.
(§3) All results are for 200 ppm except where followed by “*” which indicates 40 ppm.

[2] = system: Erysiphe graminis f. sp. tritici; experiment: Test A: wheat powdery mildew, preventive spray on wheat seedlings, visual disease rating; settings: 100 = 100 % disease control, 0 = no disease control relative to controls
Text: as §1
The test suspension was sprayed to the point of run-off on wheat seedlings. The following day the seedlings were inoculated with a spore dust of Erysiphe graminis f. sp. tritici (the causal agent of wheat powdery mildew) and incubated in a growth chamber at 20° C. for 8 days, after which time visual disease ratings were made.

Plasmopara viticola = experiment: Test I: grape downy mildew, spray on grape seedlings after inoculation, visual disease rating; settings: 100 = 100 % disease control, 0 = no disease control relative to controls
Text: as §1
Grape seedlings were inoculated with a spore suspension of Plasmopara viticola (the causal agent of grape downy mildew) and incubated in a saturated atmosphere at 20° C. for 24 h. After a short drying period, the test suspension was sprayed to the point of run-off on the grape seedlings and then moved to a growth chamber at 20° C. for 6 days, after which time the test units were placed back into a saturated atmosphere at 20° C. for 24 h. Upon removal, visual disease ratings were made.
as §3

Botrytis cinerea = experiment: Test E: tomato Botrytis, preventive spray on tomato seedlings, visual disease rating; settings: 100 = 100 % disease control, 0 = no disease control relative to controls
Septoria tritici = experiment: Test D: wheat leaf blotch, preventive spray on wheat seedlings, visual disease rating; type: in vivo; settings: 100 = 100 % disease control, 0 = no disease control relative to controls
Text: A dash (−) indicates no test results.

Phytophthora infestans = type: in vivo; settings: 100 = 100 % disease control, 0 = no disease control relative to controls
Rhizoctonia oryzae = experiment: Test G: turf brown patch, preventive spray on creeping bent grass seedlings, visual disease rating; settings: 200 ppm; 100 = 100 % disease control, 0 = no disease control relative to controls
Experimental: The test suspension was sprayed to the point of run-off on creeping bent grass seedlings. The following day the seedlings were inoculated with a spore suspension of Rhizoctonia oryzae (the causal agent of turf brown patch) and incubated in a saturated atmosphere at 27° C. for 48 h, and then moved to a growth chamber at 27° C. for 3 days, after which time visual disease ratings were made.
as §2

Structure (SMILES) | Test F disease control rating (Alternaria solani; 40 ppm (marked *)) | Test C disease control rating (Septoria nodorum; 40 ppm (marked *)) | Test B disease control rating ([1]; 40 ppm (marked *)) | Test A disease control rating ([2]; 40 ppm (marked *)) | Test I disease control rating (Plasmopara viticola; 40 ppm (marked *)) | Test E disease control rating (Botrytis cinerea; 40 ppm (marked *)) | Test D disease control rating (Septoria tritici; 40 ppm (marked *)) | Test H disease control rating (Phytophthora infestans; 40 ppm (marked *)) | Test G disease control rating (Rhizoctonia oryzae) [%] | Test F disease control rating (Alternaria solani; 200 ppm) [%] | Test C disease control rating (Septoria nodorum; 200 ppm) [%] | Test B disease control rating ([1]; 200 ppm) [%] | Test A disease control rating ([2]; 200 ppm) [%] | Test I disease control rating (Plasmopara viticola; 200 ppm) [%] | Test E disease control rating (Botrytis cinerea; 200 ppm) [%] | Test H disease control rating (Phytophthora infestans; 200 ppm) [%] | Test D disease control rating (Septoria tritici; 200 ppm) [%]
CN1OC(C)(c2cccnc2)CC1c1ccc(-c2ccc(OC(F)(F)F)cc2)cc1 (racemic) [Compound 17] | 15* % | 0* % | 0* % | 100* % | 0* % | 94* % | 30* % | 0* % | – | – | – | – | – | – | – | – | –
CN1OC(C)(c2cccnc2)CC1c1ccc(C(C)(C)C)cc1 (racemic) [Compound 7] | – | – | – | – | – | – | – | – | 0 | 40 | 69 | 34 | 99 | 0 | 99 | 0 | –
CN1OC(C)(c2cccnc2)CC1c1ccc(-n2cccn2)cc1 (stereo not drawn) [Compound 34] | 6* % | 99* % | 0* % | 98* % | 0* % | 56* % | 88* % | 0* % | – | – | – | – | – | – | – | – | –
CN1OC(c2cccnc2)(C(F)(F)F)CC1c1ccc(-c2ccccc2)cc1 (racemic) [Compound 23] | – | – | – | – | – | – | – | – | 0 | 4 | 97 | 0 | 99 | 0 | 0 | 0 | 98
CN1OC(C)(c2cccnc2)CC1c1ccc(Oc2ccccc2)cc1 (racemic) [Compound 10] | – | – | – | – | – | – | – | – | 0 | 0 | 98 | 82 | 93 | 0 | 98 | 0 | –
CN1OC(C)(c2cccnc2)CC1c1ccc(I)cc1 (racemic) [Compound 15] | – | – | – | – | – | – | – | – | – | 100 | 99 | 0 | 99 | 0 | 98 | 0 | 98
CN1OC(c2cccnc2)(C(F)(F)F)CC1c1ccc(-c2ccccc2)cc1 (racemic) [Compound 24] | – | – | – | – | – | – | – | – | 0 | 0 | 0 | 45 | 99 | 0 | 0 | 0 | 100
CN1OC(C)(c2cccnc2)CC1c1ccc(Cl)c(Cl)c1 (stereo not drawn) [Compound 6] | – | – | – | – | – | – | – | – | 0 | 0 | 0 | 0 | 99 | 17 | 0 | 0 | –
CN1O[C@](C)(c2cccnc2)C[C@@H]1c1ccc(Cl)cc1 (relative stereo) [Compound 1, rel-3-[(3R,5S)-3-(4-chlorophenyl)-2,5-dimethyl-5-isoxazolidinyl]pyridine] | – | – | – | – | – | – | – | – | 0 | 0 | 100 | 0 | 97 | 0 | 83 | 0 | –
Cc1ccc(-c2ccc([C@H]3C[C@@](C)(c4cccnc4)ON3C)cc2)cc1 (relative stereo) [Compound 13, rel-3-[(3R,5S)-2,5-dimethyl-3-(4′-methyl[1,1′-biphenyl]-4-yl)-5-isoxazolidinyl]pyridine] | 0* % | 0* % | 0* % | 99* % | 0* % | 99* % | 92* % | 0* % | – | – | – | – | – | – | – | – | –
Cc1ccc(-c2ccc(C3CC(C)(c4cccnc4)ON3C)cc2)cc1 (racemic) [Compound 14] | 0* % | 0* % | 0* % | 91* % | 0* % | 0* % | 0* % | 0* % | – | – | – | – | – | – | – | – | –
CN1OC(C)(c2cccnc2)CC1c1ccc(C(C)(C)C)cc1 (racemic) [Compound 8] | – | – | – | – | – | – | – | – | 0 | 0 | 40 | 69 | 99 | 0 | 56 | 0 | –
CN1O[C@](C)(c2cccnc2)C[C@@H]1c1ccc(-n2ccc(C(F)(F)F)n2)cc1 (relative stereo) [Compound 35, rel-3-[(3R,5S)-2,5-dimethyl-3-[4-[3-(trifluoromethyl)-1H-pyrazol-1-yl]phenyl]-5-isoxazolidinyl]pyridine] | 98* % | 100* % | 100* % | 100* % | 0* % | 99* % | 99* % | 0* % | – | – | – | – | – | – | – | – | –
CN1OC(C)(c2cccnc2)CC1c1ccc(Oc2ccccc2)cc1 (racemic) [Compound 9] | – | – | – | – | – | – | – | – | 0 | 78 | 95 | 82 | 99 | 0 | 99 | 17 | –
CN1OC(C)(c2cccnc2)CC1c1ccc(Br)cc1 (racemic) [Compound 3] | – | – | – | – | – | – | – | – | – | – | – | 0 | 93 | – | 79 | 0 | –
CN1OC(C)(c2cccnc2)CC1c1ccc(-n2cccn2)cc1 (racemic) [Compound 33] | 58* % | 99* % | 0* % | 99* % | 0* % | 39* % | 80* % | 0* % | – | – | – | – | – | – | – | – | –
CN1O[C@@](C)(c2cccnc2)C[C@@H]1c1ccc(Cl)cc1 (relative stereo) [Compound 2, rel-3-[(3R,5R)-3-(4-chlorophenyl)-2,5-dimethyl-5-isoxazolidinyl]pyridine] | – | – | – | – | – | – | – | – | 0 | 0 | 99 | 0 | 72 | 17 | 0 | 0 | –
CN1OC(C)(c2cccnc2)CC1c1ccc(-c2ccccc2)cc1 (racemic) [Compound 12] | – | – | – | – | – | – | – | – | 0 | 0 | 82 | 74 | 99 | 0 | 29 | 0 | –
CN1OC(C)(c2cccnc2)CC1c1ccc(Cl)c(Cl)c1 (stereo not drawn) [Compound 5] | – | – | – | – | – | – | – | – | 0 | 51 | 0 | 0 | 98 | 0 | 91 | 0 | –
CN1OC(C)(c2cccnc2)CC1c1ccc(I)cc1 (racemic) [Compound 16] | – | – | – | – | – | – | – | – | – | 0 | 95 | 0 | 99 | 0 | 56 | 0 | 96
CN1OC(C)(c2cccnc2)CC1c1ccc(-c2ccccc2)cc1 (racemic) [Compound 11] | – | – | – | – | – | – | – | – | 0 | 26 | 97 | 91 | 99 | 0 | 99 | 0 | –
CN1OC(C)(c2cccnc2)CC1c1ccc(Br)cc1 (racemic) [Compound 4] | – | – | – | – | – | – | – | – | 0 | 0 | 100 | 32 | 90 | 0 | 80 | 0 | –
